Test results as given in PubChem BioAssay AID2060605 (Molecular Pharmacology Branch, DTP, NCI, 2025).

System: 947758-054-R-J2-PDC spheroid growth, percent test/control
Assay: Anticancer human tumor 947758-054-R-J2-PDC patient-derived colon adenocarcinoma cell line growth inhibition [CLK]
Settings: spheroids with HUVEC and MSC; for IC50: curve of first compound; for viability, T/C: stronger effect = lower value; active = viability on the fitted dose curve at most 10% of control; inactive = the rest
In short: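 Patient-derived tumor cells grown as complex spheroids with HUVEC endothelial cells and mesenchymal stem cells, treated with drug combinations. Concentrations descend in half-log steps from near clinical Cmax, or from 10 microM if Cmax unknown.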

[1] = second compound 0.0316 µM, first compound 0.0316 µM
[2] = second compound 0.0316 µM, first compound 0.1 µM
[3] = second compound 0.0316 µM, first compound 0.316 µM
[4] = second compound 0.0316 µM, first compound 1 µM
[5] = second compound 0.1 µM, first compound 0.0316 µM
[6] = second compound 0.1 µM, first compound 0.1 µM
[7] = second compound 0.1 µM, first compound 0.316 µM
[8] = second compound 0.1 µM, first compound 1 µM
[9] = second compound 0.316 µM, first compound 0.0316 µM
[10] = second compound 0.316 µM, first compound 0.1 µM
[11] = second compound 0.316 µM, first compound 0.316 µM
[12] = second compound 0.316 µM, first compound 1 µM
[13] = second compound 1 µM, first compound 0.0316 µM
[14] = second compound 1 µM, first compound 0.1 µM
[15] = second compound 1 µM, first compound 0.316 µM
[16] = second compound 1 µM, first compound 1 µM
[17] = second compound 3.16 µM, first compound 0.0316 µM
[18] = second compound 3.16 µM, first compound 0.1 µM
[19] = second compound 3.16 µM, first compound 0.316 µM
[20] = second compound 3.16 µM, first compound 1 µM
[21] = second compound 10 µM, first compound 0.0316 µM
[22] = second compound 10 µM, first compound 0.1 µM
[23] = second compound 10 µM, first compound 0.316 µM
[24] = second compound 10 µM, first compound 1 µM
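Also: spheroids exposed to compounds for one week before readout.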
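For viability, T/C in this document: 100% = DMSO vehicle control wells.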

CC(CO)NC(=O)c1cc(-c2ccc(Cl)cc2)nn(-c2cnn(C)c2)c1=O (centres undefined) + CN1CCN(c2cc(C(=O)Nc3cc4cc(-c5cnn(C)c5)ccc4cn3)ccn2)CC1
> 10000 nM: IC50 (second compound 0.0316 µM) | IC50 (second compound 0.1 µM)
active: viability, T/C [9] 5.49% | viability, T/C [10] 6.26% | viability, T/C [11] 5.8% | viability, T/C [12] 5.69% | viability, T/C (second compound 0.316 µM, first compound 3.16 µM) 4.92% | viability, T/C (second compound 0.316 µM, first compound 10 µM) 2.57% | viability, T/C [13] 0.15% | viability, T/C [14] 0.19% | viability, T/C [15] 0.18% | viability, T/C [16] 0.36% | viability, T/C (second compound 1 µM, first compound 3.16 µM) 0.15% | viability, T/C (second compound 1 µM, first compound 10 µM) 0.14% | viability, T/C [17] 0.28% | viability, T/C [18] 0.97% | viability, T/C [19] 0.25% | viability, T/C [20] 0.24% | viability, T/C (second compound 3.16 µM, first compound 3.16 µM) 0.25% | viability, T/C (second compound 3.16 µM, first compound 10 µM) 0.31% | viability, T/C [21] 0.4% | viability, T/C [22] 0.42% | viability, T/C [23] 0.35% | viability, T/C [24] 0.41% | viability, T/C (second compound 10 µM, first compound 3.16 µM) 0.42% | viability, T/C (second compound 10 µM, first compound 10 µM) 0.36%
inactive: viability, T/C [1] 91.8% | viability, T/C [2] 112% | viability, T/C [3] 105% | viability, T/C [4] 110% | viability, T/C (second compound 0.0316 µM, first compound 3.16 µM) 126% | viability, T/C (second compound 0.0316 µM, first compound 10 µM) 155% | viability, T/C [5] 184% | viability, T/C [6] 179% | viability, T/C [7] 175% | viability, T/C [8] 199% | viability, T/C (second compound 0.1 µM, first compound 3.16 µM) 182% | viability, T/C (second compound 0.1 µM, first compound 10 µM) 133%
< 31.6 nM: IC50 (second compound 0.316 µM) | IC50 (second compound 1 µM) | IC50 (second compound 3.16 µM) | IC50 (second compound 10 µM)

COc1c(OCCCN2CCOCC2)ccc2c3n(c(=NC(=O)c4cnc(N)nc4)nc12)CCN3 + CNC(=O)c1ccc(Nc2nc(OC3CCCC3)c3c(-c4ccc5nc(C)oc5c4)c[nH]c3n2)c(OC)c1
inactive: viability, T/C (second compound 0.0316 µM, first compound 0.00316 µM) 77% | viability, T/C (second compound 0.0316 µM, first compound 0.01 µM) 53.6% | viability, T/C [1] 39.2% | viability, T/C [2] 37.2% | viability, T/C [3] 25.1% | viability, T/C [4] 13.4% | viability, T/C (second compound 0.1 µM, first compound 0.00316 µM) 69.9% | viability, T/C (second compound 0.1 µM, first compound 0.01 µM) 60.6% | viability, T/C [5] 30.2% | viability, T/C [6] 22.2% | viability, T/C [7] 14.9% | viability, T/C [8] 10.6% | viability, T/C (second compound 0.316 µM, first compound 0.00316 µM) 71.4% | viability, T/C (second compound 0.316 µM, first compound 0.01 µM) 44.6% | viability, T/C [9] 21.1% | viability, T/C [10] 11.8% | viability, T/C (second compound 1 µM, first compound 0.00316 µM) 49.8% | viability, T/C (second compound 1 µM, first compound 0.01 µM) 30.4% | viability, T/C [13] 10.1% | viability, T/C (second compound 3.16 µM, first compound 0.00316 µM) 43.2% | viability, T/C (second compound 3.16 µM, first compound 0.01 µM) 17.7% | viability, T/C (second compound 10 µM, first compound 0.00316 µM) 25.4% | viability, T/C (second compound 10 µM, first compound 0.01 µM) 15.1%
active: viability, T/C [11] 8.06% | viability, T/C [12] 3.94% | viability, T/C [14] 4.35% | viability, T/C [15] 3.7% | viability, T/C [16] 2.28% | viability, T/C [17] 9.11% | viability, T/C [18] 3.98% | viability, T/C [19] 3.84% | viability, T/C [20] 2.88% | viability, T/C [21] 8.44% | viability, T/C [22] 4.43% | viability, T/C [23] 2.95% | viability, T/C [24] 2.09%
14.7 nM: IC50 (second compound 0.1 µM)
7.81 nM: IC50 (second compound 0.316 µM)
18.1 nM: IC50 (second compound 0.0316 µM)
< 3.16 nM: IC50 (second compound 1 µM) | IC50 (second compound 3.16 µM) | IC50 (second compound 10 µM)
